# According to patent US7880007B2, “Bicyclic substituted phenyl piperidine modulators of muscarinic receptors” (Vertex Pharmaceuticals Incorporated, priority 2004, dated 2011):
# Key:
# Format in all cases: cell-based
# M4 muscarinic receptor = target: T1, M4 muscarinic receptor (Homo sapiens, UniProt P08173); assay: Functional mobilization of intracellular calcium (FLIPR), M4-CHO cells; settings: for Emax: 100% efficacy = maximum response obtained with the Carbachol control; for M4 Activity: M4-CHO cells, calcium mobilization (FLIPR)
# T1 construct: expressed in transfected cells; host or cells: CHO (M4-CHO)
# T1 sequence (P08173 1-479): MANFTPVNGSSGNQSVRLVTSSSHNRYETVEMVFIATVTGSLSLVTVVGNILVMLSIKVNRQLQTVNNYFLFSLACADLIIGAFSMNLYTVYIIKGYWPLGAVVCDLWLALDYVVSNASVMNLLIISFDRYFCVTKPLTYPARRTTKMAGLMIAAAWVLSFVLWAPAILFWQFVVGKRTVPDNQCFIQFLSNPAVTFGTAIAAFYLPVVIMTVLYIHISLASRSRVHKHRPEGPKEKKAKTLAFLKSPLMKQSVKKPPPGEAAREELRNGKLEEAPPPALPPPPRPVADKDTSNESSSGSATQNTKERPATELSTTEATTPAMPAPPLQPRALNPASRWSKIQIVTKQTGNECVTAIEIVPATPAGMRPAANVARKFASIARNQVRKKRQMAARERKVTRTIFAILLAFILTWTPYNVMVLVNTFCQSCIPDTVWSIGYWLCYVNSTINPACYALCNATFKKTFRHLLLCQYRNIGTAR
# Protocol: (§1) Functional Mobilization of Intracellular Calcium to Determine Muscarinic Receptor Activity:
# (§2) CHO cells expressing muscarinic receptors (M1 to M5) are grown as monolayers in tissue culture flasks at 37° C. in a humidified atmosphere containing 5% CO2 and passaged every 3-5 days. The growth media is Dulbecco's modified eagles medium (DMEM, Gibco Cat #12430-054), containing 25 mM Hepes and supplemented with Fetal Bovine Serum (Hyclone, cat #SH30071.03), 0.1 mM of MEM non-essential amino acids (GIBCO, Cat #11140-050), 1 mM MEM Sodium Pyruvate (GIBCO Cat #11360-070) and 100 units/ml of Penicillin G and 100 μg/ml of Streptomycin (GIBCO Cat #15140-122). The recombinant muscarinic receptor cell lines are grown under antibiotic pressure with media containing 25 μg/ml zeocin and 500 μg/ml G418 (M1-CHO), 4 μg/ml puromycin, 50 μg/ml zeocin and 2.5 μg/ml blasticidin (M2 and M4-CHO) or 50 μg/ml zeocin and 4 μg/ml puromycin (M3 and M5-CHO).
# (§3) Cells are harvested at 80-90% confluence using Versene (GIBCO Cat #15040-066), collected by centrifugation and seeded 18-24 hrs prior to running the calcium assay at a density of 5,000-10,000 cells/well in […], clear-bottomed 384-well plates (BD Biocoat, poly-D-lysine, Cat #356663). The day of the experiment, the cells are washed with a plate washer (Bioteck Instruments, ELX 405) using bath 1 buffer (140-mM NaCl, 4.5-mM KCl, 2-mM CaCl2, 1-mM MgCl2, 10-mM Hepes-Na, 10-mM Glucose, pH 7.4, with NaOH) containing 1 mM Probenecid. Next, the calcium dye Fluo-3 (25 μl/well of Fluo-3 AM at 4 μM, Molecular Probes F-1241, in Bath 1 buffer containing 1 mM Probenecid) is added to the 25 μl of Bath 1 remaining in each well after the plate wash and the dye is loaded at 37° C. in the tissue culture incubator for 60-90 min. The fluorescent dye is removed using the plate washer with Bath 1 containing 1 mM Probenecid, leaving 25 μl/well of this solution after the wash. Alternatively, cells can be loaded with the calcium indicator from Molecular Devices (Calcium 3 Assay Reagents, Cat #R7181) adding 5 μl of a 5× solution dye in Bath 1 containing 1 mM Probenecid (10 ml per dye flask cat #R7182 to generate a solution 20×) to 20 μl of the same buffer. After loading for 60 min, the experiment can be run without having to remove the dye.
# (§4) Compounds are prepared at a 2× fold concentration in a 96-well plate (round bottom, Costar Corning cat #3656), by reconstituting the pre-spotted compounds in bath 1 containing 1 mM probenecid. The final concentration DMSO is 0.5%, and the amount of DMSO is normalized across the assay plate. To determine an agonist action of the compounds on muscarinic receptors, the reconstituted compounds are added (25 μl compound/well) to the cell assay plate (containing 25 μl/well) using the multi-channel robotic system of the FLIPR 3 Instrument (Molecular Devices, Sunnyvale, Calif.). To determine a functional inhibitory action of the compounds on muscarinic receptors, the reconstituted compounds are added (25 μl compound/well) to the assay plate and pre-incubated for 15 min prior to adding 25 μl of Carbachol at 3× the EC80 for each muscarinic subtype. Alternatively, the compounds can be co-applied simultaneously with the agonist. In both assay modes, the fluorescence is recorded for 60 sec (excitation wavelength is […] and emission wavelength 540 nm) using the FLIPR 3 instrument.
# (§5) The potency, efficacy and selectivity of the muscarinic compounds were evaluated by screening the compound activity across the whole family (M1 to M5 cells). Compounds were also screened for activity on other proteins such as other GPCRs and ion channels to determine selectivity on M4 receptors.
# (§6) Examples of activities and efficacies of the muscarinic compounds of formulae (I, Ia, Ib, and II) on modulating M1, M2, M3 and M4 receptors are shown below in Table 3. […]
# M2 muscarinic receptor = target: T2, M2 muscarinic receptor (Homo sapiens, UniProt P08172); assay: Functional mobilization of intracellular calcium (FLIPR), M2-CHO cells; settings: for Emax: 100% efficacy = maximum response obtained with the Carbachol control; for M2 Activity: M2-CHO cells, calcium mobilization (FLIPR)
# T2 construct: expressed in transfected cells; host or cells: CHO (M2-CHO)
# T2 sequence (P08172 1-466): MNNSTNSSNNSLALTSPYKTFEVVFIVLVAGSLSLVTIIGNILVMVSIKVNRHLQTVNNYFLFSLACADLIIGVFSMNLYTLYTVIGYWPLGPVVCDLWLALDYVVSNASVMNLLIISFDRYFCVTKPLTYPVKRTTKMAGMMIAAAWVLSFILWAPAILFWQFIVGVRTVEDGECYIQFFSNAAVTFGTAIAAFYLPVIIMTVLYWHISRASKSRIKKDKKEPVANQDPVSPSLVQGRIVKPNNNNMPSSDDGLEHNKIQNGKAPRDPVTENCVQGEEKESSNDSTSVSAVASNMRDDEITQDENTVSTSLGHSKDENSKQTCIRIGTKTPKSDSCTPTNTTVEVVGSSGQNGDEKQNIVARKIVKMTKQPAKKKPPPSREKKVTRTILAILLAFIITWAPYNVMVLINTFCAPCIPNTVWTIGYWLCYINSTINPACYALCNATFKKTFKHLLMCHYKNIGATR
# Protocol: as §1, §2, §3, §4, §5, §6
# M1 muscarinic receptor = target: T3, M1 muscarinic receptor (Homo sapiens, UniProt P11229); assay: Functional mobilization of intracellular calcium (FLIPR), M1-CHO cells; settings: for Emax: 100% efficacy = maximum response obtained with the Carbachol control; for M1 Activity: M1-CHO cells, calcium mobilization (FLIPR)
# T3 construct: expressed in transfected cells; host or cells: CHO (M1-CHO)
# T3 sequence (P11229 1-460): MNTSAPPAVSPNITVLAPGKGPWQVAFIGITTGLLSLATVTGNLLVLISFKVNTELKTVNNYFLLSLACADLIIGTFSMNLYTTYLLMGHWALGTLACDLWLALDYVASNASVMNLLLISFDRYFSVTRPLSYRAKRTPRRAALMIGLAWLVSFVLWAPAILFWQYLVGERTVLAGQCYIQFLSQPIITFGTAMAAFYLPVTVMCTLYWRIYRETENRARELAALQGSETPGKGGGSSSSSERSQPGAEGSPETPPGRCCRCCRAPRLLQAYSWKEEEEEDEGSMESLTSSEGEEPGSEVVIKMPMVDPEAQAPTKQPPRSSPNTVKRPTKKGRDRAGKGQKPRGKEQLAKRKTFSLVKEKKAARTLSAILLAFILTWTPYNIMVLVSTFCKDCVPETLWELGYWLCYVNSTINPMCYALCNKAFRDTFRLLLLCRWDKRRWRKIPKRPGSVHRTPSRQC
# Protocol: as §1, §2, §3, §4, §5, §6
SMILES,Emax (M4 muscarinic receptor) [%],M4 Activity (M4 muscarinic receptor),Emax (M2 muscarinic receptor) [%],M2 Activity (M2 muscarinic receptor),Emax (M1 muscarinic receptor) [%],M1 Activity (M1 muscarinic receptor)
COc1ccc(Cl)cc1C1(OC)CCN(C2CCOCC2)CC1 [Compound 201],< 25,+ (activity was measured to be greater than 5.0 μM),< 25,+ (activity was measured to be greater than 5.0 μM),< 25,+ (activity was measured to be greater than 5.0 μM)
COc1ccc(Cl)cc1C1(OC)CCN(C2CCCCC2)CC1 [Compound 203],25 to 100,++ (activity was measured to be from 1.0 μM to 5.0 μM),< 25,+ (activity was measured to be greater than 5.0 μM),25 to 100,+ (activity was measured to be greater than 5.0 μM)
COc1ccccc1C1CCN(CC2CC3CCC2O3)CC1 (stereo not drawn) [Compound 218],25 to 100,++ (activity was measured to be from 1.0 μM to 5.0 μM),< 25,+ (activity was measured to be greater than 5.0 μM),< 25,+ (activity was measured to be greater than 5.0 μM)
COc1ccc(Cl)cc1C1(O)CCN(C2CCC3CCC2C3)CC1 (stereo not drawn) [Compound 228],25 to 100,++ (activity was measured to be from 1.0 μM to 5.0 μM),< 25,+ (activity was measured to be greater than 5.0 μM),< 25,+ (activity was measured to be greater than 5.0 μM)
COc1ccccc1C1(C#N)CCN(C2CCC3CCC2C3)CC1 (stereo not drawn) [Compound 240],25 to 100,+++ (activity was measured to be less than 1.0 μM),25 to 100,++ (activity was measured to be from 1.0 μM to 5.0 μM),25 to 100,++ (activity was measured to be from 1.0 μM to 5.0 μM)
COc1ccc(C2CCN(C3C[C@H]4CC[C@H](C3)C4)CC2)c(C)c1 (stereo partly drawn) [Compound 244],< 25,+ (activity was measured to be greater than 5.0 μM),< 25,+ (activity was measured to be greater than 5.0 μM),< 25,+ (activity was measured to be greater than 5.0 μM)
"CCOC(=O)N1CCC(N2CCC(C#N)(c3ccccc3OC)CC2)CC1 [Compound 245, ethyl 4-cyano-4-(2-methoxyphenyl)-1,4′-bipiperidine-1′-carboxylate]",25 to 100,+++ (activity was measured to be less than 1.0 μM),< 25,+ (activity was measured to be greater than 5.0 μM),25 to 100,+++ (activity was measured to be less than 1.0 μM)
COc1ccccc1C1(C#N)CCN(C2CCCCCC2)CC1 [Compound 279],25 to 100,++ (activity was measured to be from 1.0 μM to 5.0 μM),< 25,+ (activity was measured to be greater than 5.0 μM),< 25,++ (activity was measured to be from 1.0 μM to 5.0 μM)
COc1ccc(Cl)cc1C1(OC)CCN(C[C@@H]2C[C@H]3C=C[C@H]2C3)CC1 [Compound 286],25 to 100,+++ (activity was measured to be less than 1.0 μM),< 25,+ (activity was measured to be greater than 5.0 μM),25 to 100,+ (activity was measured to be greater than 5.0 μM)
COc1ccc(Cl)cc1C1(OC)CCN(C2CC3CCC(C3)C2)CC1 (stereo not drawn) [Compound 288],25 to 100,+++ (activity was measured to be less than 1.0 μM),< 25,+ (activity was measured to be greater than 5.0 μM),25 to 100,++ (activity was measured to be from 1.0 μM to 5.0 μM)
CCCC1CCC(N2CCC(c3cc(Cl)ccc3OC)CC2)CC1 (stereo not drawn) [Compound 293],25 to 100,++ (activity was measured to be from 1.0 μM to 5.0 μM),25 to 100,++ (activity was measured to be from 1.0 μM to 5.0 μM),25 to 100,++ (activity was measured to be from 1.0 μM to 5.0 μM)
COc1ccc(Cl)cc1C1(O)CCN(C2CCOCC2)CC1 [Compound 304],25 to 100,+ (activity was measured to be greater than 5.0 μM),< 25,+ (activity was measured to be greater than 5.0 μM),< 25,+ (activity was measured to be greater than 5.0 μM)
COc1ccc(Cl)cc1C1(OC)CCN(C2CC3CCC2C3)CC1 (stereo not drawn) [Compound 308],25 to 100,++ (activity was measured to be from 1.0 μM to 5.0 μM),< 25,+ (activity was measured to be greater than 5.0 μM),< 25,+ (activity was measured to be greater than 5.0 μM)
